Measured values from PubChem BioAssay AID1259407 (Chemical Carcinogenesis Research Information System (CCRIS), 2018).
The source made the active and inactive calls. No rule for the calls is given here.

Test system: CCRIS mutagenicity, Ames/micronucleus/aberration tests
Test: CCRIS mutagenicity studies

Measured: mutagenic call

O=C(O)c1ccc(Cl)cc1Cl
inactive: Test System: Ames Salmonella typhimurium, Strain/Indicator: TA98, Metabolic Activation: None, Method: Preincubation inactive; negative. precipitation at highest dose. | Test System: Ames Salmonella typhimurium, Strain/Indicator: TA98, Metabolic Activation: Rat, Liver, S9, Phenobarbital and 5,6-benzoflavone, Method: Preincubation inactive; negative. precipitation at highest dose. | Test System: Ames Salmonella typhimurium, Strain/Indicator: TA100, Metabolic Activation: None, Method: Preincubation inactive; negative. precipitation at highest dose. | Test System: Ames Salmonella typhimurium, Strain/Indicator: TA100, Metabolic Activation: Rat, Liver, S9, Phenobarbital and 5,6-benzoflavone, Method: Preincubation inactive; negative. precipitation at highest dose. | Test System: Ames Salmonella typhimurium, Strain/Indicator: TA1535, Metabolic Activation: None, Method: Preincubation inactive; negative. precipitation at highest dose. | Test System: Ames Salmonella typhimurium, Strain/Indicator: TA1535, Metabolic Activation: Rat, Liver, S9, Phenobarbital and 5,6-benzoflavone, Method: Preincubation inactive; negative. precipitation at highest dose. | Test System: Ames Salmonella typhimurium, Strain/Indicator: TA1537, Metabolic Activation: None, Method: Preincubation inactive; negative. precipitation at highest dose. | Test System: Ames Salmonella typhimurium, Strain/Indicator: TA1537, Metabolic Activation: Rat, Liver, S9, Phenobarbital and 5,6-benzoflavone, Method: Preincubation inactive; negative. precipitation at highest dose. | Test System: E. coli, Strain/Indicator: WP2uvrA/pKM101, Metabolic Activation: None, Method: Preincubation inactive; negative. precipitation at highest dose. | Test System: E. coli, Strain/Indicator: WP2uvrA/pKM101, Metabolic Activation: Rat, Liver, S9, Phenobarbital and 5,6-benzoflavone, Method: Preincubation inactive; negative. precipitation at highest dose.

COc1cccc2c1C(=O)c1c(O)c3c(c(O)c1C2=O)CC(O)(C(C)=O)CC3OC1CC(N(C)C)C(O)C(C)O1 (stereo not given)
inactive: Test System: CHINESE HAMSTER V-79, Strain/Indicator: V-79/8-AZAGUANINE, Metabolic Activation: RAT, HEPATOCYTES inactive; negative
active: Test System: UDS RAT HEPATOCYTES, Strain/Indicator: THY INCORP, Metabolic Activation: NONE, Method: AUTOMATIC COLONY COUNTER active; positive

CN(C)c1ccc(N=Nc2ccccc2CO)cc1
active: Test System: AMES SALMONELLA TYPHIMURIUM, Strain/Indicator: TA98, Metabolic Activation: RAT, LIVER, S-9, N-BENZYLIMIDAZOLE, Method: PREINCUBATION active; positive

CCCCCCC[CH2][Sn]([CH2]CCCCCCC)([S]CC(=O)OCCCCCC(C)C)[S]CC(=O)OCCCCCC(C)C
inactive: Test System: AMES SALMONELLA TYPHIMURIUM, Strain/Indicator: TA97, Metabolic Activation: HAMSTER, LIVER, S-9, AROCLOR 1254 (10 OR 30%), Method: PREINCUBATION inactive; negative | Test System: AMES SALMONELLA TYPHIMURIUM, Strain/Indicator: TA97, Metabolic Activation: NONE, Method: PREINCUBATION inactive; negative | Test System: AMES SALMONELLA TYPHIMURIUM, Strain/Indicator: TA97, Metabolic Activation: RAT, LIVER, S-9, AROCLOR 1254 (10 OR 30%), Method: PREINCUBATION inactive; negative | Test System: AMES SALMONELLA TYPHIMURIUM, Strain/Indicator: TA98, Metabolic Activation: HAMSTER, LIVER, S-9, AROCLOR 1254 (10 OR 30%), Method: PREINCUBATION inactive; negative | Test System: AMES SALMONELLA TYPHIMURIUM, Strain/Indicator: TA98, Metabolic Activation: NONE, Method: PREINCUBATION inactive; negative | Test System: AMES SALMONELLA TYPHIMURIUM, Strain/Indicator: TA98, Metabolic Activation: RAT, LIVER, S-9, AROCLOR 1254 (10 OR 30%), Method: PREINCUBATION inactive; negative | Test System: AMES SALMONELLA TYPHIMURIUM, Strain/Indicator: TA100, Metabolic Activation: HAMSTER, LIVER, S-9, AROCLOR 1254 (10 OR 30%), Method: PREINCUBATION inactive; negative | Test System: AMES SALMONELLA TYPHIMURIUM, Strain/Indicator: TA100, Metabolic Activation: RAT, LIVER, S-9, AROCLOR 1254 (10 OR 30%), Method: PREINCUBATION inactive; negative | Test System: AMES SALMONELLA TYPHIMURIUM, Strain/Indicator: TA1535, Metabolic Activation: HAMSTER, LIVER, S-9, AROCLOR 1254 (10 OR 30%), Method: PREINCUBATION inactive; negative | Test System: AMES SALMONELLA TYPHIMURIUM, Strain/Indicator: TA1535, Metabolic Activation: NONE, Method: PREINCUBATION inactive; negative | Test System: AMES SALMONELLA TYPHIMURIUM, Strain/Indicator: TA1535, Metabolic Activation: RAT, LIVER, S-9, AROCLOR 1254 (10 OR 30%), Method: PREINCUBATION inactive; negative
active: Test System: AMES SALMONELLA TYPHIMURIUM, Strain/Indicator: TA100, Metabolic Activation: NONE, Method: PREINCUBATION active; positive

CC(C)=CCCC(C)CC=O (stereo not given)
inactive: Test System: AMES SALMONELLA TYPHIMURIUM, Strain/Indicator: TA97A, Metabolic Activation: NONE, Method: STANDARD PLATE inactive; negative | Test System: AMES SALMONELLA TYPHIMURIUM, Strain/Indicator: TA97A, Metabolic Activation: RAT LIVER S-9, AROCLOR 1254, Method: STANDARD PLATE inactive; negative | Test System: AMES SALMONELLA TYPHIMURIUM, Strain/Indicator: TA98, Metabolic Activation: NONE, Method: STANDARD PLATE inactive; negative | Test System: AMES SALMONELLA TYPHIMURIUM, Strain/Indicator: TA98, Metabolic Activation: RAT LIVER S-9, AROCLOR 1254, Method: STANDARD PLATE inactive; negative | Test System: AMES SALMONELLA TYPHIMURIUM, Strain/Indicator: TA100, Metabolic Activation: NONE, Method: STANDARD PLATE inactive; negative | Test System: AMES SALMONELLA TYPHIMURIUM, Strain/Indicator: TA100, Metabolic Activation: RAT LIVER S-9, AROCLOR 1254, Method: STANDARD PLATE inactive; negative | Test System: AMES SALMONELLA TYPHIMURIUM, Strain/Indicator: TA102, Metabolic Activation: NONE, Method: STANDARD PLATE inactive; negative | Test System: AMES SALMONELLA TYPHIMURIUM, Strain/Indicator: TA102, Metabolic Activation: RAT LIVER S-9, AROCLOR 1254, Method: STANDARD PLATE inactive; negative

Cc1c2c(c(CO)c3ccc4ccccc4c13)[C@H](O)[C@@H](O)C=C2
active: Test System: CHINESE HAMSTER V-79, Strain/Indicator: V-79/6-THIOGUANINE, Metabolic Activation: CELL-MEDIATED, Method: STANDARD PLATE active; positive | Test System: CHINESE HAMSTER V-79, Strain/Indicator: V-79/OUABAIN, Metabolic Activation: CELL-MEDIATED, Method: STANDARD PLATE active; positive

CCOC(=O)NO
active: Test System: AMES SALMONELLA TYPHIMURIUM, Strain/Indicator: TA98, Metabolic Activation: RAT, LIVER, S-9, KC500 OR PHENOBARBITAL, Method: LIQUID SUSPENSION active; positive | Test System: E. COLI, Strain/Indicator: WP2 UVRA, Metabolic Activation: NONE, Method: FLUCTUATION TEST active; positive

CC[C@H]1O[C@@H]1c1ccccc1
inactive: Test System: AMES SALMONELLA TYPHIMURIUM, Strain/Indicator: TA98, Metabolic Activation: NONE, Method: PREINCUBATION (PHOSPHATE-BUFFERED KCL OR SOLUTE-FREE WATER MEDIA) inactive; negative | Test System: AMES SALMONELLA TYPHIMURIUM, Strain/Indicator: TA100, Metabolic Activation: NONE, Method: PREINCUBATION (PHOSPHATE-BUFFERED KCL OR SOLUTE-FREE WATER MEDIA) inactive; negative | Test System: AMES SALMONELLA TYPHIMURIUM, Strain/Indicator: TA104, Metabolic Activation: NONE, Method: PREINCUBATION (PHOSPHATE-BUFFERED KCL OR SOLUTE-FREE WATER MEDIA) inactive; negative
